Test results published in publication PMC11062899, “De novo development of small cyclic peptides that are orally bioavailable” (Nature Chemical Biology, 2023).
Where “and” joins values, the source holds several entries; their conditions need not be identical. Equal entries are not always repeated. Where two headings read alike, the source gives them in different places.

Tests used:
rat α-thrombin = biological target: T1, rat α-thrombin (Rattus norvegicus, UniProt P18292); test: Protease inhibition, Ki for rat α-thrombin (fluorogenic substrate Z-Gly-Gly-Arg-AMC); format: biochemical; settings: rat alpha thrombin; for Slope normalized to DMSO (proteolytic substrate cleavage over time): replicates R1-R3
T1 construct: rat α-thrombin (Molecular Innovations) were used at final concentrations of 2 nM and 3 nM; purchased Molecular Innovations
Procedure, shortened: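 Ki derived through Cheng–Prusoff from IC50s (four-parameter logistic fit) against activity of peptide-free controls. Product fluorescence was read every 3 min over 30 min at 25 °C, substrate Z-Gly-Gly-Arg-AMC at 50 μM. Enzyme was 2 nM human or 3 nM rat α-thrombin, pH 7.4 buffer.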

[1] = Metabolic stability in rat liver microsomes (RLMs); settings: for microsomal CLint / half-life: rat
porcine pancreatin = test: Peptide stability in simulated intestinal fluid (SIF); format: in vitro ADME; parameters: remaining at 8 h: dose or concentration left out as unconfirmed; settings: after 8 h vs 0 h (TIC); single replicates R1-R3
Procedure, shortened: (§1)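 Peptide from a 1 mM DMSO stock was added to fluid pre-warmed at 37 °C. SGF was pH 1.2 NaCl with porcine pepsin (0.32 g per 100 ml), and SIF was pH 6.8 potassium phosphate with porcine pancreatin (1 g per 100 ml). Supernatant peptide was quantified by LC–MS, with residual expressed as T1/T0.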

[2] = as above; format: in vitro ADME, porcine; parameters: remaining at 8 h: dose or concentration left out as unconfirmed; settings: pH 6.8
Procedure, shortened: as §1

porcine pepsin = biological target: T2, porcine pepsin (Sus scrofa, UniProt P00791); test: Peptide stability in simulated gastric fluid (SGF); format: in vitro ADME
T2 construct: 0.32 g of porcine pepsin (Sigma-Aldrich, P7125) was dissolved under gentle agitation; purchased Sigma-Aldrich P7125
Procedure, shortened: as §1

[3] = Passive artificial membrane permeability (PAMPA)

T2 sequence (P00791 60-385): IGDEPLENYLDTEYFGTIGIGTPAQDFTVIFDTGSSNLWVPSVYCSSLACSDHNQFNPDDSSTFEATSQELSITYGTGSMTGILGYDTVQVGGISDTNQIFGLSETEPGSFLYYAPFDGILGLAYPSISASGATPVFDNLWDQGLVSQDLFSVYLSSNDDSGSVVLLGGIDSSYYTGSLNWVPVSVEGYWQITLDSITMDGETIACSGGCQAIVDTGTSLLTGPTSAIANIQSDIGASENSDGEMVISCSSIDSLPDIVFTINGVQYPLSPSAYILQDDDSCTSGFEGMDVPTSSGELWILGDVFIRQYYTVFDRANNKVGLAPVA

Ki (rat α-thrombin; average of R1-R3, read-out: Ki Average, rat alpha thrombin inhibition): 18.4 nM | Slope normalized to DMSO (proteolytic substrate cleavage over time) (rat α-thrombin; peptide 1.02E-03 uM): 95.3 and 93.5 and 90.4 | Slope normalized to DMSO (proteolytic substrate cleavage over time) (rat α-thrombin; peptide 1.04E+00 uM): 8.6 and 8.7 and 5.7 | Slope normalized to DMSO (proteolytic substrate cleavage over time) (rat α-thrombin; peptide 1.27E-04 uM): 96.6 and 98.1 and 94.9 | Slope normalized to DMSO (proteolytic substrate cleavage over time) (rat α-thrombin; peptide 1.30E-01 uM): 29.1 and 30.9 and 27.9 | Slope normalized to DMSO (proteolytic substrate cleavage over time) (rat α-thrombin; peptide 1.59E-05 uM): 99.9 and 100.8 and 98.0 | Slope normalized to DMSO (proteolytic substrate cleavage over time) (rat α-thrombin; peptide 1.63E-02 uM): 66.4 and 67.5 and 64.5 | Slope normalized to DMSO (proteolytic substrate cleavage over time) (rat α-thrombin; peptide 1.67E+01 uM): 5.5 and 6.4 and 3.4 | Slope normalized to DMSO (proteolytic substrate cleavage over time) (rat α-thrombin; peptide 2.03E-03 uM): 85.0 and 86.2 and 80.9 | Slope normalized to DMSO (proteolytic substrate cleavage over time) (rat α-thrombin; peptide 2.08E+00 uM): 8.2 and 8.0 and 6.0 | Slope normalized to DMSO (proteolytic substrate cleavage over time) (rat α-thrombin; peptide 2.54E-04 uM): 94.8 and 90.7 and 91.8 | Slope normalized to DMSO (proteolytic substrate cleavage over time) (rat α-thrombin; peptide 2.60E-01 uM): 20.1 and 21.2 and 15.6 | Slope normalized to DMSO (proteolytic substrate cleavage over time) (rat α-thrombin; peptide 3.18E-05 uM): 99.5 and 101.3 and 96.2 | Slope normalized to DMSO (proteolytic substrate cleavage over time) (rat α-thrombin; peptide 3.26E-02 uM): 58.6 and 59.5 and 55.9 | Slope normalized to DMSO (proteolytic substrate cleavage over time) (rat α-thrombin; peptide 3.33E+01 uM): 4.9 and 6.5 and 3.7 | Slope normalized to DMSO (proteolytic substrate cleavage over time) (rat α-thrombin; peptide 4.07E-03 uM): 77.2 and 73.8 and 74.9 | Slope normalized to DMSO (proteolytic substrate cleavage over time) (rat α-thrombin; peptide 4.17E+00 uM): 6.8 (2×) and -8.2 | Slope normalized to DMSO (proteolytic substrate cleavage over time) (rat α-thrombin; peptide 5.09E-04 uM): 92.2 and 90.6 and 87.0 | Slope normalized to DMSO (proteolytic substrate cleavage over time) (rat α-thrombin; peptide 5.21E-01 uM): 12.0 and 12.9 and 10.7 | Slope normalized to DMSO (proteolytic substrate cleavage over time) (rat α-thrombin; peptide 6.36E-05 uM): 97.8 and 99.0 and 94.4 | Slope normalized to DMSO (proteolytic substrate cleavage over time) (rat α-thrombin; peptide 6.51E-02 uM): 36.9 and 38.0 and 37.1 | Slope normalized to DMSO (proteolytic substrate cleavage over time) (rat α-thrombin; peptide 6.67E+01 uM): 5.7 and 6.9 and 3.2 | Slope normalized to DMSO (proteolytic substrate cleavage over time) (rat α-thrombin; peptide 7.95E-06 uM): 102.6 and 104.4 and 98.4 | Slope normalized to DMSO (proteolytic substrate cleavage over time) (rat α-thrombin; peptide 8.14E-03 uM): 67.4 and 67.8 and 64.3 | Slope normalized to DMSO (proteolytic substrate cleavage over time) (rat α-thrombin; peptide 8.33E+00 uM): 6.5 and 6.4 and -9.8 | IC50 (rat α-thrombin; single replicates R1-R3, read-out: IC50, rat alpha thrombin inhibition): 31.1 nM and 30.7 nM and 37.8 nM | TIC value of compound, 0 min, R1 ([1]; rat liver microsomes, 0 min, replicate R1): 23625921 | TIC value of compound, 0 min, R3 ([1]; rat liver microsomes, 0 min, replicate R3): 25801224 | TIC value of compound, 5 min, R1 ([1]; rat liver microsomes, 5 min, replicate R1): 20860918 | TIC value of compound, 5 min, R3 ([1]; rat liver microsomes, 5 min, replicate R3): 23019710 | TIC value of compound, 15 min, R1 ([1]; rat liver microsomes, 15 min, replicate R1): 12779197 | TIC value of compound, 15 min, R3 ([1]; rat liver microsomes, 15 min, replicate R3): 13375542 | TIC value of compound, 30 min, R1 ([1]; rat liver microsomes, 30 min, replicate R1): 7192264 | TIC value of compound, 30 min, R3 ([1]; rat liver microsomes, 30 min, replicate R3): 5638202 | TIC value of compound, 60 min, R1 ([1]; rat liver microsomes, 60 min, replicate R1): 1618321 | TIC value of compound, 60 min, R3 ([1]; rat liver microsomes, 60 min, replicate R3): 1784495 | microsomal CLint ([1]; CL (ul/min/mg protein), R1, RLM CL, replicate R1, unrounded): 79 µL/min/mg | microsomal CLint ([1]; CL (ul/min/mg protein), R2, RLM CL, replicate R2, unrounded): 90.4 µL/min/mg | microsomal CLint ([1]; CL (ul/min/mg protein), R3, RLM CL, replicate R3, unrounded): 88.3 µL/min/mg | half-life ([1]; Half Life (min), R1, RLM metabolic stability, replicate R1): 17.6 min | half-life ([1]; Half Life (min), R2, RLM metabolic stability, replicate R2): 15.3 min | half-life ([1]; Half Life (min), R3, RLM metabolic stability, replicate R3): 15.7 min | half-life ([1]; microsomes, Metabolic stability: Half life T1/2 (min), RLMs, mean and SD, three measurements): 16.2 ± 1 min | microsomal CLint ([1]; microsomes, Metabolic stability: RLM CL (ul/min/mg), RLMs, mean and SD, three measurements): 86 ± 5 µL/min/mg | microsomal CLint ([1]; microsomes, RLM CL, Average, average of R1-R3): 85.9 µL/min/mg | microsomal CLint ([1]; microsomes, RLM CL, R1, RLM CL, replicate R1, summary block): 79 µL/min/mg | microsomal CLint ([1]; microsomes, RLM CL, R2, RLM CL, replicate R2, summary block): 90.3 µL/min/mg | microsomal CLint ([1]; microsomes, RLM CL, R3, RLM CL, replicate R3, summary block): 88.3 µL/min/mg | SIF stability, Residual peptide (porcine pancreatin): 32.04 and 28.68 and 33.58 | remaining at 8 h ([2]; pig, after 8 h vs 0 h (TIC), average of R1-R3, read-out: SIF stability, Residual peptide Average): 31.4% | remaining at 8 h ([2]; simulated gi fluid, 8 h, 37 °C, read-out: Proteolytic stability: SIF (8 h) % remaining): 31 ± 3% | SGF stability, Residual peptide Average (porcine pepsin; after 8 h vs 0 h (TIC), average of R1-R3): 98.71 | SGF stability, Residual peptide (porcine pepsin; after 8 h vs 0 h (TIC), single replicates R1-R3): 102.19 and 96.66 and 97.27 | remaining at 8 h (porcine pepsin; simulated gi fluid, 8 h, 37 °C, pH 1.2, read-out: Proteolytic stability: SGF (8 h) % remaining): 99 ± 3% | PAMPA permeability: % permeability ([3]; 50 μM, 12–18 h, acceptor concentration relative to equilibrium): 21 ± 8% | Papp at 50 μM ([3]; PAMPA, pH 7.4): 2.24 ×10⁻⁶ cm/s | Permeability% Average ([3]; top well sample vs theoretical equilibrium sample (TIC), average of R1-R3): 21.1% | Permeability% ([3]; top well sample vs theoretical equilibrium sample (TIC), single replicates R1-R3): 16.62% and 15.98% and 30.80%
Compound: O=C1C[C@H]2CCCN2C(=O)[C@H](Cc2ccccc2)NC(=O)[C@@H](NC(=O)c2ccc(Cl)s2)CCCSCc2cccc(n2)CSCCN1 [compound 35]
Ki (rat α-thrombin; single replicates R1-R3, read-out: Ki, rat alpha thrombin inhibition): 17.2 nM (2×) and 17 nM (2×) and 20.9 nM (2×)
